# Active and inactive are the calls of the source. The calls are words filed in the database; no cut-off is given here.
# Experiments:
# [1] = target: Serine/threonine-protein kinase Nek1 (Homo sapiens, UniProt Q96PY6); experiment: Nek1(NEK1LGY1) Takeda global kinase panel
# [2] = target: Serine/threonine-protein kinase Nek2 (Homo sapiens, UniProt P51955); experiment: Nek2(NEK2LHFA) Takeda global kinase panel
# [3] = target: Tyrosine-protein kinase Srms (Homo sapiens, UniProt Q9H3Y6); experiment: Srm(SRMSLGY1) Takeda global kinase panel
# [4] = target: Serine/threonine-protein kinase Nek5 (Homo sapiens, UniProt Q6P3R8); experiment: Nek5(NEK5LGRD) Takeda global kinase panel
# [5] = target: Receptor-interacting serine/threonine-protein kinase 1 (Mus musculus, UniProt Q60855); experiment: TR-FRET (mouse RIPK1)
# [6] = target: Serine/threonine-protein kinase MARK2 (Homo sapiens, UniProt Q7KZI7); experiment: MARK2(MAR2LGY1) Takeda global kinase panel
# [7] = target: Kappa-type opioid receptor (Homo sapiens) (UniProt P41145); conditions: Compound concentration 10.0 uM
# [8] = target: 5-hydroxytryptamine receptor 1B (Homo sapiens) (UniProt P28222); conditions: Compound concentration 10.0 uM
# hERG (KCNH2) = hERG (KCNH2) (Homo sapiens, UniProt Q12809); experiment: Inhibition of Potassium Channel hERG at 10 µM in the Eurofins-Panlabs radioligand binding assay (Eurofins_assay_265900); design: ligand concentration 1.5 nM, non-specific ligand with concentration Astemizole, incubation time 60 min, incubation temperature 25 °C; conditions: HEK-293 cells expressing human recombinant hERG, probe [3H] Astemizole, compound concentration 10 uM
# [9] = target: Activin receptor type-1-like (Homo sapiens, UniProt P37023); experiment: ALK1(ACL1LGF1) Takeda global kinase panel
# [10] = target: Serine/threonine-protein kinase 4 (Homo sapiens, UniProt Q13043); experiment: MST1(STK4LGF1) Takeda global kinase panel
# [11] = target: Estrogen receptor (Homo sapiens) (UniProt P03372); conditions: Compound concentration 10.0 uM
# [12] = target: NUAK family SNF1-like kinase 1 (Homo sapiens, UniProt O60285); experiment: NuaK1(NUA1LGF5) Takeda global kinase panel
# [13] = target: Serine/threonine-protein kinase Sgk3 (Homo sapiens, UniProt Q96BR1); experiment: SGK3(SGK3LGY1) Takeda global kinase panel
# [14] = target: Gamma-aminobutyric acid type B receptor subunit 1 (Homo sapiens) (UniProt Q9UBS5); experiment: Inhibition of GABAB1A at compound concentration of 10.0 uM in the Eurofins-Panlabs radioligand binding assay (Eurofins_assay_228610); design: ligand concentration 4 nM; conditions: Compound concentration 10.0 uM
# [15] = target: Casein kinase I isoform alpha (Homo sapiens, UniProt P48729); experiment: CK1alpha(C1A1PHY1) Takeda global kinase panel
# [16] = target: Uncharacterized serine/threonine-protein kinase SBK3 (Homo sapiens, UniProt P0C264); experiment: SgK110(SG10LGF1) Takeda global kinase panel
# [17] = target: Protein kinase C alpha type (Homo sapiens, UniProt P17252); experiment: PKCalpha(PRKALGY1) Takeda global kinase panel
# [18] = target: 5-hydroxytryptamine receptor 3A (Homo sapiens) (UniProt P46098); conditions: Compound concentration 10.0 uM
# [19] = target: Cyclin-dependent kinase 11A (Homo sapiens, UniProt Q9UQ88); experiment: CDK11A(C11ALGS1) Takeda global kinase panel
# [20] = target: 5-hydroxytryptamine receptor 3A (Homo sapiens) (UniProt P46098); experiment: Inhibition of Serotonin (5-Hydroxytryptamine) 5-HT3 at 10 µM in the Eurofins-Panlabs radioligand binding assay (Eurofins_assay_271910); design: ligand concentration 0.69 nM; conditions: Compound concentration 10.0 uM
# [21] = target: Serine/threonine-protein kinase OSR1 (Homo sapiens, UniProt O95747); experiment: OSR1(OXS1LGY1) Takeda global kinase panel
# [22] = target: Alpha-2A adrenergic receptor (Homo sapiens, UniProt P08913); experiment: GPCRScan assay: inhibition of Alpha2A; design: radioligand conc. used [nm] 1.0 – 3.0, parental cells stable MDCK
# [23] = target: Beta-3 adrenergic receptor (Homo sapiens) (UniProt P13945); conditions: Compound concentration 10.0 uM
# [24] = target: Serine/threonine-protein kinase MRCK alpha (Homo sapiens, UniProt Q5VT25); experiment: MRCKalpha(CD4ALGY1) Takeda global kinase panel
# [25] = target: Mitogen-activated protein kinase 14 (Homo sapiens, UniProt Q16539); experiment: p38alpha(MP14LGI1) Takeda global kinase panel
# [26] = target: Serine/threonine-protein kinase pim-1 (Homo sapiens, UniProt P11309); experiment: Pim1(PIM1LGP1) Takeda global kinase panel
# [27] = target: Cyclin-dependent kinase 12 (Homo sapiens, UniProt Q9NYV4); experiment: CRK7(CD12PHS1) Takeda global kinase panel
# [28] = target: Mitogen-activated protein kinase 1 (Homo sapiens, UniProt P28482); experiment: ERK2(MAP1LGY1) Takeda global kinase panel
# Activated CDC42 kinase 1 = Activated CDC42 kinase 1 (Homo sapiens, UniProt Q07912); experiment: Ack(TNK2LGF1) Takeda global kinase panel
# [29] = target: Calcium/calmodulin-dependent protein kinase type IV (Homo sapiens, UniProt Q16566); experiment: CaMK4(CAM4LGY1) Takeda global kinase panel
# [30] = target: Interleukin-1 receptor-associated kinase 3 (Homo sapiens, UniProt Q9Y616); experiment: IRAK3(IRK3PFE1) Takeda global kinase panel
# [31] = target: Receptor-interacting serine/threonine-protein kinase 1 (Homo sapiens, UniProt Q13546); experiment: TR-FRET (human RIPK1)
# [32] = target: Receptor-type tyrosine-protein kinase FLT3 (Homo sapiens, UniProt P36888); experiment: FLT3(FLT3MGE1) Takeda global kinase panel
# [33] = target: G protein-coupled receptor kinase 6 (Homo sapiens, UniProt P43250); experiment: GRK6(GRK6LGP1) Takeda global kinase panel
# [34] = target: Serine/threonine-protein kinase 24 (Homo sapiens, UniProt Q9Y6E0); experiment: MST3(ST24LGC1) Takeda global kinase panel
# [35] = target: Beta-1 adrenergic receptor (Homo sapiens) (UniProt P08588); conditions: Compound concentration 10.0 uM
# [36] = target: Neuropeptide Y receptor type 2 (Homo sapiens) (UniProt P49146); experiment: Inhibition of Neuropeptide Y Y2 at 10 µM in the Eurofins-Panlabs radioligand binding assay (Eurofins_assay_257110); conditions: Compound concentration 10.0 uM
# [37] = target: Bromodomain testis-specific protein (Homo sapiens, UniProt Q58F21); experiment: BRDT(BRDTLGRC) Takeda global kinase panel
# [38] = target: Serine/threonine-protein kinase DCLK3 (Homo sapiens, UniProt Q9C098); experiment: DCAMKL3(DCL3LGP1) Takeda global kinase panel
# [39] = target: Receptor-interacting serine/threonine-protein kinase 3 (Homo sapiens, UniProt Q9Y572); experiment: RIPK3(RIP3IGRI) Takeda global kinase panel
# [40] = target: Endothelin receptor type B (Homo sapiens) (UniProt P24530); conditions: Compound concentration 10.0 uM
# TGF-beta receptor type-1 = TGF-beta receptor type-1 (Homo sapiens, UniProt P36897); experiment: TGFbetaR1(TGF1LGF1) Takeda global kinase panel
# [41] = target: Serine/threonine-protein kinase B-raf (Homo sapiens, UniProt P15056); experiment: BRAF(BRAFLGY1) Takeda global kinase panel
# 5-hydroxytryptamine receptor 3A (Homo sapiens), sequence (P46098 whole entry): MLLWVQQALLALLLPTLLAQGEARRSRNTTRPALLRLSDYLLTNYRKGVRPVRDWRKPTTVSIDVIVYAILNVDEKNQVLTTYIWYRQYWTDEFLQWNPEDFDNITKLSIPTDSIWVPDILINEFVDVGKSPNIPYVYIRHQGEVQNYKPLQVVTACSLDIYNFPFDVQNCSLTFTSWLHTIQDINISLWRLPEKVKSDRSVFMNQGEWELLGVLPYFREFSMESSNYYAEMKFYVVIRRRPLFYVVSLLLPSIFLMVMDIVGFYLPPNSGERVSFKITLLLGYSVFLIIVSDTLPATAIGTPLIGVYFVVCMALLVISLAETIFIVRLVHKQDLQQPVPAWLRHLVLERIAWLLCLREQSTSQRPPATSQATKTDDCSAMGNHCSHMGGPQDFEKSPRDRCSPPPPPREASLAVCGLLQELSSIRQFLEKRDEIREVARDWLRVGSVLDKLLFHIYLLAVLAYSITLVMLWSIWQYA
# Endothelin receptor type B (Homo sapiens), sequence (P24530 whole entry): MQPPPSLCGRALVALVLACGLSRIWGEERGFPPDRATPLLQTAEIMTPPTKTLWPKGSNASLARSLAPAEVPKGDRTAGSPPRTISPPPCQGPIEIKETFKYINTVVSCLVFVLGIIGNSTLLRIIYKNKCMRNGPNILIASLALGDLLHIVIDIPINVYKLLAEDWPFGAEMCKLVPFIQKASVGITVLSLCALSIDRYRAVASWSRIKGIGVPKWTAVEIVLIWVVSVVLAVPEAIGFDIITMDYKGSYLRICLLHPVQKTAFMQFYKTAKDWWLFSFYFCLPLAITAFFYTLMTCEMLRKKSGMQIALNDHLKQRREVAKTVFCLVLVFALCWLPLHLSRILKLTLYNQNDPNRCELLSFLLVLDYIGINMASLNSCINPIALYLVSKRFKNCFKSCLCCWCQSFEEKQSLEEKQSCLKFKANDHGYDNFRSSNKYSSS
# Serine/threonine-protein kinase OSR1, sequence (O95747 whole entry): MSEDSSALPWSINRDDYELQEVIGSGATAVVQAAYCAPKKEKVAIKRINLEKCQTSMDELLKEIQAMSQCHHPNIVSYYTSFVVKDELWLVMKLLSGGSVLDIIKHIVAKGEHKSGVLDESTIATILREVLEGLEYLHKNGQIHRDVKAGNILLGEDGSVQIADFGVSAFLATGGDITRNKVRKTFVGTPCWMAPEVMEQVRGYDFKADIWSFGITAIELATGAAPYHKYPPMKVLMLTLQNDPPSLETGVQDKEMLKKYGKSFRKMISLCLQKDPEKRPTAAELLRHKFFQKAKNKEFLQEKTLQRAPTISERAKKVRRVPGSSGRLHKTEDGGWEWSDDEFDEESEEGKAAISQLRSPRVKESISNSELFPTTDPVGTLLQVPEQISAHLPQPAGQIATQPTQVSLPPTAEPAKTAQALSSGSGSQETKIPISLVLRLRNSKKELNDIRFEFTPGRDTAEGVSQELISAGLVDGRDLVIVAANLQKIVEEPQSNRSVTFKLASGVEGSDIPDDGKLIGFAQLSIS
# Estrogen receptor (Homo sapiens), sequence (P03372 whole entry): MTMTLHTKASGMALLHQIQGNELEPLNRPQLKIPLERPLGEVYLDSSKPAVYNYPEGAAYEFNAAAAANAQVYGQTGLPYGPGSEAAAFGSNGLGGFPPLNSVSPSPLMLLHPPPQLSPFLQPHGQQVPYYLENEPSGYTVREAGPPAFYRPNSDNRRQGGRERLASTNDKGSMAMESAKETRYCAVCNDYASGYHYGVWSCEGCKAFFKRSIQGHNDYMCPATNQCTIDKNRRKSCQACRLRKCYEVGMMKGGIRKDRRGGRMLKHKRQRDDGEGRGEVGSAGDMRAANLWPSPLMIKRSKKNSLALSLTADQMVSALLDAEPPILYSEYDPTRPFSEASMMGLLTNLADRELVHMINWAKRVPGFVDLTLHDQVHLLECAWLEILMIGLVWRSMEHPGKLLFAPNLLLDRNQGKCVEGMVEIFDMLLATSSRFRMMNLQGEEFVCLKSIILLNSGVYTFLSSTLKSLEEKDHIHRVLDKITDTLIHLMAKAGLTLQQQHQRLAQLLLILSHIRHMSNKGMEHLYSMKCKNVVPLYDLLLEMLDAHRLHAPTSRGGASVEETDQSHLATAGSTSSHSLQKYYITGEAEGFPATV
# Cyclin-dependent kinase 11A, sequence (Q9UQ88 whole entry): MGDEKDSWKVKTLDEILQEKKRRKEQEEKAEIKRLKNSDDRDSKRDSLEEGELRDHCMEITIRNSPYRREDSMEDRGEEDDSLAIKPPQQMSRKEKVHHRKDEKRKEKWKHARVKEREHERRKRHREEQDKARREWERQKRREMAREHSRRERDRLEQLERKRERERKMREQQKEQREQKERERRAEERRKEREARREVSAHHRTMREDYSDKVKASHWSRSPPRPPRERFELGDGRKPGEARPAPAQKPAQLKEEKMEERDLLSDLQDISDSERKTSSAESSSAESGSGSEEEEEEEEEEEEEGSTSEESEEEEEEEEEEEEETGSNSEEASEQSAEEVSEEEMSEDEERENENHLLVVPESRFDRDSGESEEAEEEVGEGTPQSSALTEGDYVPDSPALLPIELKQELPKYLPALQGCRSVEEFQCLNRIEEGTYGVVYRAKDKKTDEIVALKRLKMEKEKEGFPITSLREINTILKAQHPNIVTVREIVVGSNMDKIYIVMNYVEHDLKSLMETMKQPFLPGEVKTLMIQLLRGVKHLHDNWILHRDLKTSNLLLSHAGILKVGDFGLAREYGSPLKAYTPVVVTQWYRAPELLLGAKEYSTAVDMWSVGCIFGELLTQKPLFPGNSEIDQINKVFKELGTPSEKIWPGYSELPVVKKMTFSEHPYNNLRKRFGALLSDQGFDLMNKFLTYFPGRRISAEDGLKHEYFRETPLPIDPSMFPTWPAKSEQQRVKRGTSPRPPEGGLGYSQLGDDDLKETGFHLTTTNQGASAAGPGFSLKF
# Serine/threonine-protein kinase MRCK alpha, sequence (Q5VT25 whole entry): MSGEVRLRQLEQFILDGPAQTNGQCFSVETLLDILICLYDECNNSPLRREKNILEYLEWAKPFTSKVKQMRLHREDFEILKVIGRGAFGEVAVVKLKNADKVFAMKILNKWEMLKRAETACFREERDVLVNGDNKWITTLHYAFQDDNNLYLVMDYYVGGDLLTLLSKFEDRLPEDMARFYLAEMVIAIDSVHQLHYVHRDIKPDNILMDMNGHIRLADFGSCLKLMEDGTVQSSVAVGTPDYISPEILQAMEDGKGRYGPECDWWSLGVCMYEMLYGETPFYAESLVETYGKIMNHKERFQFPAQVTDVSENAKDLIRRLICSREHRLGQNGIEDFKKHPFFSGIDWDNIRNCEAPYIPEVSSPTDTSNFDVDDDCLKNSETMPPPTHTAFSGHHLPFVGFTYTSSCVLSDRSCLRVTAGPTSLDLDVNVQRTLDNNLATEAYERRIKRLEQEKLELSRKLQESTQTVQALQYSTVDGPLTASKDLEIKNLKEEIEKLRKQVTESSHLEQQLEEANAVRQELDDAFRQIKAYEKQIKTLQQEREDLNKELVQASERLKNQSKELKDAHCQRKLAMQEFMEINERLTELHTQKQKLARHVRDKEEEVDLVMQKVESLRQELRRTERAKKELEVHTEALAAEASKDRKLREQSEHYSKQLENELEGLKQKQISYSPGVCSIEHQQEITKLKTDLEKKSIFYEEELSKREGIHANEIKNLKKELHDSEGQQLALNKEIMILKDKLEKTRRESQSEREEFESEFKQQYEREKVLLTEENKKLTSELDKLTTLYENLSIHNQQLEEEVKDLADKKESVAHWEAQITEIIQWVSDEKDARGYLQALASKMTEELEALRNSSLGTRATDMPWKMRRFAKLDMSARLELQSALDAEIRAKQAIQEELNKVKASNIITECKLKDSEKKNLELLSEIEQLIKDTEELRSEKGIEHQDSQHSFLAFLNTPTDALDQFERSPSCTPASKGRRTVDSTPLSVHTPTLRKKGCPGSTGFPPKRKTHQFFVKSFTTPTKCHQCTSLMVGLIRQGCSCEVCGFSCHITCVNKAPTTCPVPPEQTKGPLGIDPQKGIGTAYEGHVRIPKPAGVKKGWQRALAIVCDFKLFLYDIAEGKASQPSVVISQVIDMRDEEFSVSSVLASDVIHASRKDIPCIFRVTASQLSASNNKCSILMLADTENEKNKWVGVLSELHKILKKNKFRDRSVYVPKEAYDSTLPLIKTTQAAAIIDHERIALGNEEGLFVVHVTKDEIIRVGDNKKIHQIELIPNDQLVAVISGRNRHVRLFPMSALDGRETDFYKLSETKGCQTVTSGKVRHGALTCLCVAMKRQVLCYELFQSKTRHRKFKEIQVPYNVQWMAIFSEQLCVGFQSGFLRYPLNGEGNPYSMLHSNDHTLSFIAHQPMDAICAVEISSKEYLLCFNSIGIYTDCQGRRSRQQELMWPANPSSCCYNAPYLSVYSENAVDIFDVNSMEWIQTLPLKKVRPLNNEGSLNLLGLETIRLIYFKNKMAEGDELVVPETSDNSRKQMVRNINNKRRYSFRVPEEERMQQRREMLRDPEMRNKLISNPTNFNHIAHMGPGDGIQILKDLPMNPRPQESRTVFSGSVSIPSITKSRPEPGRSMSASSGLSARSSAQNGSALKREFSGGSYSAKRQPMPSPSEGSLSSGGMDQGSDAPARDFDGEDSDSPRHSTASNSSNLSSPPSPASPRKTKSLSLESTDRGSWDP
# Casein kinase I isoform alpha, sequence (P48729 whole entry, canonical isoform): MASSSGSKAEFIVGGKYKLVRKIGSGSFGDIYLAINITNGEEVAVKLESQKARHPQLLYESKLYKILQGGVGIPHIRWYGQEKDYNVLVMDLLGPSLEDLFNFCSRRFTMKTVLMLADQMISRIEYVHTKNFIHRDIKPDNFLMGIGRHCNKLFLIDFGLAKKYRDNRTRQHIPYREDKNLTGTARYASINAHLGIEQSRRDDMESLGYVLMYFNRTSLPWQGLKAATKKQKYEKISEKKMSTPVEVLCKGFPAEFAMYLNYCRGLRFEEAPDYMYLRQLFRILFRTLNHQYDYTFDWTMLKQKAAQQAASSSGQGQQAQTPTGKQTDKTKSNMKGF
smiles,measurement,setting,value
CN1C(=O)[C@@H](N2CCc3c(nn(Cc4ccccc4)c3Br)C2=O)COc2ccccc21 [TP-030-2],IC50,[1],1000 nM
same,IC50,[2],1000 nM
same,IC50,[3],1000 nM
same,IC50,[4],1000 nM
same,IC50,[5],100 nM (active)
same,IC50,[6],1000 nM
same,inhibition,[7],3%
same,inhibition,[8],-3.35%
same,"inhibition at 60 min, 10 µM",hERG (KCNH2),7% (not active)
same,IC50,[9],1000 nM
same,IC50,[10],1000 nM
same,inhibition,[11],10%
same,IC50,[12],1000 nM
same,IC50,[13],1000 nM
same,inhibition,[14],1%
same,IC50,[15],1000 nM
same,IC50,[16],1000 nM
same,IC50,[17],1000 nM
same,inhibition,[18],37.7%
same,IC50,[19],1000 nM
same,inhibition,[20],4%
same,IC50,[21],1000 nM
same,Ki,[22],2360 nM
same,inhibition,[23],39.3%
same,IC50,[24],1000 nM
same,IC50,[25],1000 nM
same,IC50,[26],1000 nM
same,IC50,[27],1000 nM
same,IC50,[28],1000 nM
same,IC50,Activated CDC42 kinase 1,1000 nM
same,IC50,[29],1000 nM
same,IC50,[30],1000 nM
same,Ki,[31],0.43 nM (active)
same,IC50,[32],1000 nM
same,IC50,[33],1000 nM
same,IC50,[34],1000 nM
same,inhibition,[35],12%
same,inhibition,[36],-6%
same,IC50,[37],1000 nM
same,IC50,[38],1000 nM
same,IC50,[39],1000 nM
same,inhibition,[40],-7%
same,IC50,TGF-beta receptor type-1,1000 nM
same,IC50,[41],1000 nM

# Reference: ChEMBL document CHEMBL4507326, “Data for DCP probe TP-030-2” (2021)
